# Results as given in US20140301961A1, “COMPOUNDS WITH ANTI-AGING ACTIVITIES” (priority 2011, published 2014).
# Columns and labels:
# [1] = test system: Plasminogen activator (PLAT); test: Plasminogen activator (PLAT) activation
# [2] = test system: connective tissue growth factor (CTGF); test: Affymetrix gene array on skin explants, CTGF; type: cell-based, human; settings: topical, 24 hours, cut-off |log 2−ratio|>1
# From the text: (§1) Subcutaneous fat from full thickness skin, obtained from surgical waste material from breast reduction procedures, was removed with a scalpel. Three healthy Caucasian female donors were used for this study. The female donors differed from those of the skin-treatment study outlined previously 8 mm punch biopsies were taken from the skin (and these biopsies are now referred to as skin explants). Skin explants were put on Milipore cell culture inserts (12 mm diameter). Inserts containing skin explants were put in 6-well plates (one insert/well) and 1 mL of supplemented keratinocyte medium (ex Cascade Biologics) was added to each well. A tretinoin-containing cream (Aberela® ex. Janssen): 0.05% tretinoin in the cream, was applied topically to each explant (5 μL/cm^2) using a positive displacement pipette. A placebo cream without tretinoin was used as a control. The skin explants were incubated with tretinoin for 24 hours at 37° C. in 5% CO2-humidified air.
# (§2) RNA concentration was measured with ND-1000 spectrophotometer (ex. NanoDrop Technologies) and RNA quality was evaluated using the Agilent 2100 bioanalyzer system (ex. Agilent Technologies). 250 nanograms of total RNA from each skin or skin explant sample was used to prepare biotinylated fragmented cRNA according to the GeneChip® 3′IVT Express Kit Manual (PN702646 Rev 1, ex. Affymetrix Inc.). Affymetrix GeneChip® expression arrays (Human Genome U133 Plus 2.0) were hybridized for 16 hours in a 45° C. incubator, rotated at 60 rpm. According to the GeneChip Expression Wash, Stain and Scan Manual (PN 702731 Rev 2, ex. Affymetrix Inc.) the arrays were washed and stained using the Fluidics Station 450 and scanned using the GeneChip® Scanner 3000 7G.
# Analysis of the gene expression data was carried out in the statistical computing language R (http://www.r-project.org) using packages available from the Bioconductor project (www.bioconductor.org). The raw data was normalized using the robust multi-array average (RMA) method. In order to search for differentially expressed genes between the X samples and the Y samples group an empirical Bayes moderated t-test was then applied using the ‘limma’ package.
# Skin explants were obtained as detailed in Example 3.1. Compounds naringenin and N-acetyl aspartic acid were topically applied on skin explants for 24 hours and investigated with Affymetrix gene array.
# [3] = In vitro skin permeation, static Franz diffusion cells; type: in vitro ADME; settings: 0.5% w/w in a basic formulation, topical, 24 hours, pig skin (FIG. 1)
# From the text: The in vitro skin permeation experiments were developed and validated according to the Organization for Economic Co-Operation and Development adopted guideline 428 (OECD guideline for the testing of chemicals. Skin absorption: in vitro method. Guideline 428 (Paris, April 2004, updated January 2011)).
# For this investigation, static Franz glass diffusion cells (Permegear, USA) were used. These cells consist of donor and receptor chambers in between which a piece of porcine skin was positioned (thickness 800 μm). About 20 mg/cm^2 of each formulation were applied on the skin surface through the donor compartment in triplicate for each formulation. The pig skin samples were equilibrated for 30 minutes, and air bubbles were removed. The cells were kept at constant temperature with a circulating water flow at 37° C. and the receptor compartment content (ethanol/water 50:50) was continuously agitated by magnetic stirrers.
# After an exposure time of 24 hours, the diffusion cells were dismounted and each active was analysed in each compartment. • the non absorbable dose: the skin surface was washed with 10.0 ml of methanol and one tape-strip was made in order to remove the residual donor samples. • the potentially absorbable dose: the tape stripping procedure was used in order to separate the stratum corneum from the skin sample. […]
# [4] = test system: MMP-1, MMP-2, MMP-3, MMP-8, MMP-9; test: UV-induced MMP production in human skin explants; type: cell-based; settings: 1% in propylene glycol (FIG. 2)
# Protocol: MMP inhibition activity for compound of the invention was tested on human skin explants. Skin explants were sourced from 2 healthy caucasian female breast skin donor […]. A cream containing all-trans retinoic acid (tretinoin) (0.05%) was added topically using positive displacement pipette (5 ul/cm^2) to each explants. A similar cream base without tretinoin was used as placebo control. […] Solutions were kept under nitrogen and used immediately after preparation. Propylene glycol was used as vehicle control for the compounds of the invention in this study. Fluorokine MultiAnalyte Profiling (xMAP) using the BioPlex (ex. Biorad) dual laser flow-based sorting and detection analyzers manufactured by Luminex corporation (Luminex, Austin, Tex.) was employed to measure levels of MMP in conditioned media samples of stimulated dermal fibroblasts. The technology incorporated polystyrene microspheres dyed internally with differing ratios of two spectrally distinct fluorophores to create a family of different spectrally addressed bead sets. […] Samples were analyzed using the Bio-Plex suspension array system and Bio-Plex Manager software 4.0 (Bio-Rad Laboratories, Hercules, Calif.). Quantities were determined by comparison to standard curves obtained for the different MMP.
# [5] = test system: human reconstructed epidermis (SkinEthic model); test: In vitro skin irritation, OECD guideline 439; type: cell-based; settings: pure compound, cytotoxicity assay on reconstructed epidermis
# Protocol: The studies, aimed at evaluating the capability of the test compound to induce skin irritation effects by a cytotoxicity assay on in vitro human reconstructed epidermis (SkinEthic), were carried out according to the ECVAM protocol of Apr. 27, 2007, the B46 method of the official journal of the European union, dated Aug. 14, 2009 and the OECD guideline 439.
# [6] = test system: Kallikrein 8; test: Kallikrein 8 ELISA in human normal keratinocytes; type: cell-based; settings: 4 days stimulation (FIG. 14)
# Protocol: Keratinocytes were cultured in commercially available keratinocyte medium M154 (Cascade Biologics/Invitrogen) # M154500 with a final calcium […]. Supplements were added meeting following final concentrations of growth factors; bovine pituitary extract (BPE), 0.2% v/v·bovine insulin, 5 μg/ml·hydrocortisone, 0.18 μg/ml·bovine transferrin, 5 μg/ml·human epidermal growth factor, 0.2 ng/ml.
# Keratinocytes used for Kallikrein 8 experiments were cultured as described in example 2.1. Experiments were performed in monolayers with 80% confluence. The cells were stimulated for 4 days prior to kallikrein 8 analysis with the different actives and then culture supernatant were collected and stored in −20° C. until further analysis. Kallikrein 8 production was analysed in cell culture supernatants from stimulated keratinocytes using a ELISA assay specific for Kallikrein 8 (Uscn Life Science Inc, E90690Hu). Results were compared with cell culture supernatants from DMSO vehicle treated cells. The assays utilized a 96-well microplate format and were processed according to the manufacturer's protocol, including generation of a standard curve prepared in background assay diluents. Absorbance of the assay dye was read at a Synergy HT plate reader. Values that fell within the linear range of the calibration assay were accepted. Quantities were determined by comparison to standard curves obtained for KLK8.
# [7] = test system: heparin-binding EGF-like growth factor (HBEGF); test: Affymetrix gene array on skin explants, HBEGF; type: cell-based, human; settings: topical, 24 hours, cut-off |log 2−ratio|>1
# From the text: as §1, §2
# Analysis of the gene expression data was carried out in the statistical computing language R (http://www.r-project.org) using packages available from the Bioconductor project (www.bioconductor.org). The raw data was normalized using the robust multi-array average (RMA) method. […]
# [8] = test system: keratin 6; test: Keratin-6 production in normal human keratinocytes; type: cell-based; settings: normal human keratinocytes (FIG. 11)
Structure (SMILES),Plasminogen activator (PLAT) activation [1],CTGF gene expression [2] [log 2−ratio],penetration into the skin [3],"inhibition of UV-induced MMP-1, MMP-2, MMP-3, MMP-8, MMP-9 production [4]",skin irritation [5],synthesis of kallikrein 8 [6],HBEGF gene expression [7],keratin-6 production [8]
"CC(=O)N[C@@H](CC(=O)O)C(=O)O [N-Acetyl aspartic acid, (2S)-2-Acetamidobutanedioic acid]",activated,1.03,penetration of each active into the skin,inhibition,non-irritating to skin,significant increase in the synthesis of kallikrein 8,No,
"O=C1C[C@@H](c2ccc(O)cc2)Oc2cc(O)cc(O)c21 [Naringenin, (S)-2,3-Dihydro-5,7-dihydroxy-2-(4-hydroxyphenyl)-4H-1-benzopyran-4-one]",,1.05,penetration of each active into the skin,,non-irritating to skin,significant increase in the synthesis of kallikrein 8,1.19 log 2−ratio,stimulated keratin-6 production
"C=C1C[C@]23C[C@@]1(O)CC[C@H]2[C@@]12C=C[C@H](O)[C@@](C)(C(=O)O1)[C@@H]2[C@@H]3C(=O)O [Gibberellic acid, (3S,3aS,4S,4aS,7S,9aR,9bR,12S)-7,12-dihydroxy-3-methyl-6-methylene-2-oxoperhydro-4a,7-methano-9b,3-propenoazuleno[1,2-b]furan-4-carboxylic acid]",activated,,,inhibition,,significant increase in the synthesis of kallikrein 8,,
